Results: ChEMBL document CHEMBL1142282, “Asymmetric synthesis and stereochemical structure-activity relationship of (R)- and (S)-8-[1-(2,4-dichlorophenyl)-2-imidazol-1-yl-ethoxy] octanoic acid heptyl ester, a potent inhibitor of allene oxide synthase” (Bioorg Med Chem, 2008)

Legend:
[1] = system: Arabidopsis; assay: Inhibition of arabidopsis recombinant allene oxide synthase at 1 uM
[2] = Binding affinity at arabidopsis recombinant allene oxide synthase
[3] = Inhibition of arabidopsis recombinant allene oxide synthase; conditions: read-out: I50

| inhibition [1] | Kd [2] | IC50 [3] | Structure (SMILES) |
| --- | --- | --- | --- |
| 93% | 1400 nM | 5 nM | CCCCCCCOC(=O)CCCCCCCO[C@@H](Cn1ccnc1)c1ccc(Cl)cc1Cl |
| 50% | 4800 nM | 950 nM | CCCCCCCOC(=O)CCCCCCCO[C@H](Cn1ccnc1)c1ccc(Cl)cc1Cl |
